Measured values taken from ChEMBL document CHEMBL3120101, “Synthesis, biological evaluation, hydration site thermodynamics, and chemical reactivity analysis of α-keto substituted peptidomimetics for the inhibition of Plasmodium falciparum” (Bioorg Med Chem Lett, 2014).

Legend:
Plasmodium falciparum = assay: Antimicrobial activity against chloroquine-resistant Plasmodium falciparum W2 assessed as growth inhibition; type: functional, organism-based
[1] = target: T1, Cysteine protease falcipain-3 (Plasmodium falciparum, UniProt Q9NAW4); assay: Inhibition of Plasmodium falciparum cysteine protease falcipain-3
T1 sequence (Q9NAW4 whole entry): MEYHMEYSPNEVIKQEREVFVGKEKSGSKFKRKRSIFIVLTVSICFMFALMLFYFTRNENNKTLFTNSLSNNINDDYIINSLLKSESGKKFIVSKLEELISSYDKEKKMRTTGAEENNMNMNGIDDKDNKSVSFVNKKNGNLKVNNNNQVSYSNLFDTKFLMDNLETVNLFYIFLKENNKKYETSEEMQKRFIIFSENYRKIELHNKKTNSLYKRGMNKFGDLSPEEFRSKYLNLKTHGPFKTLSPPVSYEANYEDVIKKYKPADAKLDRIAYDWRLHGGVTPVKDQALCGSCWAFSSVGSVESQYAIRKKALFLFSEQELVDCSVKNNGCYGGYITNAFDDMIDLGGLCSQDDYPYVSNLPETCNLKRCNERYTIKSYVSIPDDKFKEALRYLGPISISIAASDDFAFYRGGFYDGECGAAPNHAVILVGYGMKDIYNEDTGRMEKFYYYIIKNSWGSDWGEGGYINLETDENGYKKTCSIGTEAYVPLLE

Falcipain 2 = target: T2, Falcipain 2 (Plasmodium falciparum, UniProt Q9N6S8); assay: Inhibition of Plasmodium falciparum cysteine protease falcipain-2
T2 sequence (Q9N6S8 whole entry): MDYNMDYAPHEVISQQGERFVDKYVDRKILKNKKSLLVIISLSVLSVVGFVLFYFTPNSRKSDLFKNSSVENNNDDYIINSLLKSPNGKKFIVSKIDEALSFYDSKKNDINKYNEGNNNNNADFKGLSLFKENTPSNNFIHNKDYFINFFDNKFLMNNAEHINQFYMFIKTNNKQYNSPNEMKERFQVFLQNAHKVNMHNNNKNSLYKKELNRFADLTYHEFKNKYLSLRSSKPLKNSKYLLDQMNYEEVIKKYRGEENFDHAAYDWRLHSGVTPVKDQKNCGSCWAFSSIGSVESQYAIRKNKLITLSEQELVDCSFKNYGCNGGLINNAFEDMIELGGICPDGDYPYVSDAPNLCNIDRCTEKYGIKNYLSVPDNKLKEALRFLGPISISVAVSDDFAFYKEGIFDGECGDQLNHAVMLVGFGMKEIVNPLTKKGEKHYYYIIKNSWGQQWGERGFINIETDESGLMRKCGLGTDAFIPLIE

Work on `CC(=O)OCC(=O)[C@H](CCc1ccccc1)NC(=O)C1C2C=CC(C2)C1NC(=O)OCc1ccccc1` (stereo partly specified) yielded an IC50 (Plasmodium falciparum) of over 50 µM, an IC50 [1] of over 50 µM and an IC50 (Falcipain 2) of over 50 µM.

Compound `O=C(NC1(C(=O)N[C@@H](CCc2ccccc2)C(=O)CO)CCSCC1)OCc1ccccc1` has an IC50 (Plasmodium falciparum) of 28.2 µM, an IC50 [1] of 8.22 µM and an IC50 (Falcipain 2) of 3.25 µM.

Work on `O=C(CN1CCOCC1)[C@H](CCc1ccccc1)NC(=O)[C@@H]1C[C@@H](O)CN1C(=O)OCc1ccccc1` yielded an IC50 (Plasmodium falciparum) of 10.2 µM, an IC50 [1] of over 50 µM and an IC50 (Falcipain 2) of over 50 µM.

`O=C(CO)[C@H](CCc1ccccc1)NC(=O)[C@@H]1Cc2ccccc2CN1C(=O)OCc1ccccc1` was tested, and the IC50 (Plasmodium falciparum) was over 50 µM, the IC50 [1] was over 50 µM and the IC50 (Falcipain 2) was over 50 µM.

`CC1(C)OC[C@@H](C(=O)N[C@@H](CCc2ccccc2)C(=O)CO)N1C(=O)OCc1ccccc1` showed an IC50 (Plasmodium falciparum) of over 50 µM, an IC50 [1] of over 50 µM and an IC50 (Falcipain 2) of over 50 µM.

For `CC(=O)SCC(=O)[C@H](CCc1ccccc1)NC(=O)[C@@H]1CCCN1C(=O)OCc1ccccc1`, the IC50 (Plasmodium falciparum) was 18.1 µM, the IC50 [1] was 36.4 µM and the IC50 (Falcipain 2) was over 50 µM.

`CC(=O)OCC(=O)[C@H](CCc1ccccc1)NC(=O)[C@H](CCc1ccccc1)NC(=O)OCc1ccccc1` was tested, and the IC50 (Plasmodium falciparum) was over 50 µM, the IC50 [1] was over 50 µM and the IC50 (Falcipain 2) was 29.7 µM.

`O=C(N[C@@H]1CCCC[C@@H]1C(=O)N[C@@H](CCc1ccccc1)C(=O)CO)OCc1ccccc1` was tested, and the IC50 (Plasmodium falciparum) was 47.6 µM, the IC50 [1] was 0.91 µM and the IC50 (Falcipain 2) was 4.42 µM.

For `CC(=O)OCC(=O)[C@H](CCc1ccccc1)NC(=O)C1(NC(=O)OCc2ccccc2)CCSCC1`, the IC50 (Plasmodium falciparum) was over 50 µM, the IC50 [1] was over 50 µM and the IC50 (Falcipain 2) was 33.9 µM.

`O=C(N[C@H]1CC=CC[C@H]1C(=O)N[C@@H](CCc1ccccc1)C(=O)CO)OCc1ccccc1` was tested, and the IC50 (Plasmodium falciparum) was over 50 µM, the IC50 [1] was 20.2 µM and the IC50 (Falcipain 2) was over 50 µM.

For `O=C1CCC(NC(=O)OCc2ccccc2)(C(=O)N[C@@H](CCc2ccccc2)C(=O)CO)CC1`, the IC50 (Plasmodium falciparum) was 23.3 µM, the IC50 [1] was 47.2 µM and the IC50 (Falcipain 2) was over 50 µM.

Work on `CC(=O)OCC(=O)[C@H](CCc1ccccc1)NC(=O)[C@@H]1COC(C)(C)N1C(=O)OCc1ccccc1` yielded an IC50 (Plasmodium falciparum) of over 50 µM, an IC50 [1] of over 50 µM and an IC50 (Falcipain 2) of over 50 µM.

`O=C(N[C@H]1CCCC[C@H]1C(=O)N[C@@H](CCc1ccccc1)C(=O)CO)OCc1ccccc1` gave an IC50 (Plasmodium falciparum) of over 50 µM, an IC50 [1] of 0.54 µM and an IC50 (Falcipain 2) of 5.52 µM.

`O=C(CO)[C@H](CCc1ccccc1)NC(=O)[C@@H]1C[C@@H](O)CN1C(=O)OCc1ccccc1` showed an IC50 (Plasmodium falciparum) of 7.7 µM, an IC50 [1] of 0.06 µM and an IC50 (Falcipain 2) of 0.08 µM.

Compound `O=C(CSCCCc1ccccc1)[C@H](CCc1ccccc1)NC(=O)[C@@H]1CCCN1C(=O)OCc1ccccc1` has an IC50 (Plasmodium falciparum) of 13.8 µM, an IC50 [1] of over 50 µM and an IC50 (Falcipain 2) of 48.1 µM.

For `CC(=O)SCC(=O)[C@H](CCc1ccccc1)NC(=O)[C@@H]1C[C@@H](O)CN1C(=O)OCc1ccccc1`, the IC50 (Plasmodium falciparum) was 18.6 µM, the IC50 [1] was 3.56 µM and the IC50 (Falcipain 2) was over 50 µM.

`O=C(N[C@@H](CCc1ccccc1)C(=O)N[C@@H](CCc1ccccc1)C(=O)CO)OCc1ccccc1` gave an IC50 (Plasmodium falciparum) of 37.2 µM, an IC50 [1] of 11.9 µM and an IC50 (Falcipain 2) of 30.1 µM.

Work on `O=C(N[C@H]1CCC[C@H]1C(=O)N[C@@H](CCc1ccccc1)C(=O)CO)OCc1ccccc1` yielded an IC50 (Plasmodium falciparum) of over 50 µM, an IC50 [1] of 23.9 µM and an IC50 (Falcipain 2) of over 50 µM.

`O=C(CO)[C@H](CCc1ccccc1)NC(=O)[C@@H]1CCCN1C(=O)OCc1ccccc1` showed an IC50 (Plasmodium falciparum) of over 50 µM, an IC50 [1] of over 50 µM and an IC50 (Falcipain 2) of over 50 µM.

Compound `CC(=O)OCC(=O)[C@H](CCc1ccccc1)NC(=O)[C@@H]1Cc2ccccc2CN1C(=O)OCc1ccccc1` has an IC50 (Plasmodium falciparum) of over 50 µM, an IC50 [1] of over 50 µM and an IC50 (Falcipain 2) of over 50 µM.

With `O=C(NC1C2C=CC(C2)C1C(=O)N[C@@H](CCc1ccccc1)C(=O)CO)OCc1ccccc1` (stereo partly specified) the IC50 (Plasmodium falciparum) was 47.2 µM, the IC50 [1] was 25.4 µM and the IC50 (Falcipain 2) was 33.6 µM.

Work on `O=C(CSCCCc1ccccc1)[C@H](CCc1ccccc1)NC(=O)[C@@H]1C[C@@H](O)CN1C(=O)OCc1ccccc1` yielded an IC50 (Plasmodium falciparum) of 19.6 µM, an IC50 [1] of 0.52 µM and an IC50 (Falcipain 2) of 1.1 µM.
